This note sets out measurements from patent US20260250320A1, “LIPIDATED PEPTIDE INHIBITORS OF INTERLEUKIN-23 RECEPTOR” (Janssen Pharmaceutica NV, priority 2023, published 2026).

The test system of assay [1] is IL-23-stimulated phosphorylated STAT3 in peripheral blood mononuclear cells (PBMCs). Nature of the assay: PBMC pSTAT3 Assay. Conditions: PBMCs from healthy donors; 30 min preincubation with peptide; IL-23 5 ng/mL for 30 min; phospho-STAT3 by MSD. Format: cell-based. The method, boiled down:
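Phospho-STAT3 quantified by Meso Scale assay in lysates of PBMCs exposed to IL-23 (5 ng/mL, 30 min, 37 °C) after 30 min peptide pretreatment. Cells were cryopreserved donor PBMCs activated 4 days with anti-CD3 plus IL-1β (100 ng/mL) and starved ~4 h; IC50 reported.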

A further assay concerns the target T1, IL-23R (Homo sapiens, UniProt Q5VWK5).
T1 construct: HEK293 cells containing IL-23R, IL-12Rβ1 and a firefly luciferase reporter gene driven by a STAT-inducible promoter (Promega); host or cells: HEK293
T1 sequence (Q5VWK5 24-629): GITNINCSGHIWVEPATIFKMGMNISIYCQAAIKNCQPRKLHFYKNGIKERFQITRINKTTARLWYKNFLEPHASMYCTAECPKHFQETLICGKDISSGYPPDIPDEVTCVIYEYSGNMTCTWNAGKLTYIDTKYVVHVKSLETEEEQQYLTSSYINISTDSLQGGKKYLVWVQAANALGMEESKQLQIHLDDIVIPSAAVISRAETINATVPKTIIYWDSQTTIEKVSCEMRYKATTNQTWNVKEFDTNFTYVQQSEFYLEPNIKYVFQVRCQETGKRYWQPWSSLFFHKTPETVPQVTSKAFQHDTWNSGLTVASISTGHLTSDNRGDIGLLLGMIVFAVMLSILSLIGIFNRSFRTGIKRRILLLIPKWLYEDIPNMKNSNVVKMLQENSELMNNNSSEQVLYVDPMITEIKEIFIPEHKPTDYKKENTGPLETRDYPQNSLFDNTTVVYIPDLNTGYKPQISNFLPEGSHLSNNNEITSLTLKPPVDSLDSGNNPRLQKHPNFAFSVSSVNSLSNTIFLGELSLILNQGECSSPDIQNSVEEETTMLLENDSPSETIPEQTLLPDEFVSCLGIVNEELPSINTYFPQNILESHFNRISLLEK
The experiment in a line: IL23R Reporter Assay. Format: cell-based. The conditions noted are these: HEK293 cells containing IL-23R, IL-12Rβ1 and STAT-inducible firefly luciferase reporter; 10 ng/mL IL-23 (EC90); 5 h. The essentials: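 IC50 values were fitted with a 4-parameter Hill equation to luciferase signal, scaled between IL-23-only wells (0% inhibition) and 30 μM reference inhibitor (100%). The readout was a STAT-inducible reporter in IL-23R/IL-12Rβ1 HEK293 cells, stimulated with added 10 ng/mL IL-23 (EC90) for 5 h at 37° C and developed with BioGlo.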
On the technique in general: In a reporter assay the amount or activity of a reporter protein is the signal.

Molecules are shown by their SMILES. *1 amine or outer side, *2 acyl side, *3 side chain or, on linkers, in order; H or OH if unused. Where a SMILES comes first, the peptide text is derived from it. Bridges are numbered along the chain shown (N, C = ends). Side-chain parts run from the residue outwards. [ ]: non-standard residue; d: D form. The star is where a group is joined. ξ: configuration not given here. Me3N+CH2CH2(OCH2CH2)4CO = C[N+](C)(C)CCOCCOCCOCCOCCC(=O)*; Me3N+(CH2)2O(CH2)2O(CH2)2CO = C[N+](C)(C)CCOCCOCCC(=O)*; X28 = CC(=O)[C@H](CCC(=O)*)NC(=O)CCCCCCCCCCCCCCCCC(=O)O; CH2CH2OCH2CH2OCH2CH2NMe3+ = C[N+](C)(C)CCOCCOCC*; Trp(7-Me) = Cc1cccc2c(C[C@H](N)C(=O)O)c[nH]c12; C18 diacid = O=C(O)CCCCCCCCCCCCCCCCC(=O)*; X6 = CN(CC[C@H](N[*:1])C(=O)[*:2])[*:3]; γGlu = O=C(O)[C@H](CCC(=O)[*:2])N[*:1]; 2Nal = N[C@@H](Cc1ccc2ccccc2c1)C(=O)O; X26 = C[N+](C)(CCN[*:1])CC(=O)[*:2]; PEG6 = NCCOCCOCCOCCOCCOCCOCCC(=O)O; ξAEF = NCCOc1ccc(CC(N)C(=O)O)cc1; 3Pal = N[C@@H](Cc1cccnc1)C(=O)O; Lys(Me) = CNCCCC[C@H](N)C(=O)O; NMeK = CN[C@@H](CCCCN)C(=O)O; Pen = CC(C)(S)[C@H](N)C(=O)O; Thp = NC1(C(=O)O)CCOCC1; AEEA = NCCOCCOCC(=O)O; Sar = CNCC(=O)O

The term IC50 denotes the midpoint of a concentration-inhibition curve. For `Cc1cccc2c(C[C@@H]3NC(=O)[C@H]([C@@H](C)O)NC(=O)[C@H](CC(N)=O)NC(=O)[C@@H](NC(=O)[C@@H](CCCNC(=N)N)CC(=O)COCCOCCNC(=O)COCCOCCNC(=O)CC[C@H](NC(=O)CCCCCCCCCCCCCCCCC(=O)O)C(=O)O)C(C)(C)SSC(C)(C)[C@@H](C(=O)N[C@@H](Cc4ccc(OCCN)cc4)C(=O)N[C@@H](Cc4ccc5ccccc5c4)C(=O)NC4(C(=O)N[C@@H](CCC(=O)O)C(=O)N[C@@H](CC(N)=O)C(=O)N[C@@H](Cc5cccnc5)C(=O)N(C)CC(N)=O)CCOCC4)NC(=O)[C@H](CCCCN(C)C(=O)CCCCCOCC[N+](C)(C)C)NC3=O)c[nH]c12` [compound 84, HOC18gEPEG2PEG2CO-r-Pen(3)-N-T-7MeW-K(NMecPEG3a)-Pen(3)-AEF-2Nal-THP-E-N-3Pya-Sar-CONH2], the results for the IC50 (in assay [1]; against IL-23R) were less than 0.5 nM and less than 50 nM, respectively.
Take `CC(=O)N(C)CCCC[C@@H]1NC(=O)[C@H](Cc2c[nH]c3c(C)cccc23)NC(=O)[C@H]([C@@H](C)O)NC(=O)[C@H](CC(=O)N(C)C)NC(=O)[C@@H](NC(=O)CCOCCOCC[N+](C)(C)C)C(C)(C)SSC(C)(C)[C@@H](C(=O)N[C@@H](Cc2ccc(OCCOCCOCC[N+](C)(C)C)cc2)C(=O)N[C@@H](Cc2ccc3ccccc3c2)C(=O)NC2(C(=O)N[C@@H](CCCCN(C)C(C)=O)C(=O)N[C@@H](CC(N)=O)C(=O)N[C@@H](Cc3cccnc3)C(=O)N(C)[C@@H](CCCCNC(=O)CCOCCOCCOCCOCCOCCOCCNC(=O)CC[C@H](NC(=O)CCCCCCCCCCCCCCCCC(=O)O)C(=O)O)C(N)=O)CCOCC2)NC1=O` [compound 88, cPEG3aCO-Pen(3)-N(N(Me)2)-T-7MeW-K(NMeAc)-Pen(3)-APEG3F-2Nal-THP-K(NMeAc)-N-3Pya-NMeK(PEG6gEC18OH)-CONH2] ({Me3N+(CH2)2O(CH2)2O(CH2)2CO}-[Pen]D(NMe2)T[Trp(7-Me)][Lys(Me)](Ac)[Pen]Y(CH2CH2OCH2CH2OCH2CH2NMe3+)[2Nal][Thp][Lys(Me)](Ac)N[3Pal][NMeK]([PEG6-γGlu-C18 diacid])-NH2; disulfide 1-6): the values for the concentration for half-maximal inhibition (IC50) (in assay [1]; at IL-23R) were less than 0.5 nM and less than 50 nM, respectively.
The like results for `CC(=O)N(C)CCCC[C@@H]1NC(=O)[C@H](Cc2c[nH]c3c(C)cccc23)NC(=O)[C@H]([C@@H](C)O)NC(=O)[C@H](CC(=O)N(C)C)NC(=O)[C@@H](NC(=O)COCCOCCNC(=O)C[N+](C)(C)CCNC(=O)COCCOCCNC(=O)CC[C@H](NC(=O)CCCCCCCCCCCCCCCCC(=O)O)C(=O)O)C(C)(C)SSC(C)(C)[C@@H](C(=O)N[C@@H](Cc2ccc(OCCOCCOCC[N+](C)(C)C)cc2)C(=O)N[C@@H](Cc2ccc3ccccc3c2)C(=O)NC2(C(=O)N[C@@H](CCCCN(C)C(C)=O)C(=O)N[C@@H](CC(N)=O)C(=O)N[C@@H](Cc3cccnc3)C(=O)N(C)CC(=O)N(C)C)CCOCC2)NC1=O` [compound 89, HOC18gEPEG2SP6PEG2CO-Pen(3)-N(N(Me)2)-T-7MeW-K(NMeAc)-Pen(3)-APEG3F-2Nal-THP-K(NMeAc)-N-3Pya-Sar-CON(Me)2] ({C18 diacid-γGlu-AEEA}-[X26][AEEA][Pen]D(NMe2)T[Trp(7-Me)][Lys(Me)](Ac)[Pen]Y(CH2CH2OCH2CH2OCH2CH2NMe3+)[2Nal][Thp][Lys(Me)](Ac)N[3Pal][Sar]-NMe2; disulfide 3-8) were, in that order, less than 0.5 nM and less than 50 nM.
For `CC(=O)[C@H](CCC(=O)NCCOCCOCCOCCOCCOCCOCCC(=O)NCCCC[C@@H](C(N)=O)N(C)C(=O)[C@H](Cc1cccnc1)NC(=O)[C@H](CC(N)=O)NC(=O)[C@H](CCC(=O)O)NC(=O)C1(NC(=O)[C@H](Cc2ccc3ccccc3c2)NC(=O)C(Cc2ccc(OCCN)cc2)NC(=O)[C@H]2NC(=O)[C@H](CCN(C)C(=O)CCOCCOCCOCCOCC[N+](C)(C)C)NC(=O)[C@H](Cc3c[nH]c4c(C)cccc34)NC(=O)[C@H]([C@@H](C)O)NC(=O)[C@H](CC(=O)N(C)C)NC(=O)[C@@H](NC(=O)CCOCCOCCOCCOCC[N+](C)(C)C)C(C)(C)SSC2(C)C)CCOCC1)NC(=O)CCCCCCCCCCCCCCCCC(=O)O` (some centres unmarked) [compound 90, cPEG5aCO-Pen(3)-N(N(Me)2)-T-7MeW-Dab(NMecPEG5a)-Pen(3)-AEF-2Nal-THP-E-N-3Pya-NMeK(PEG6gEC18OH)-CONH2] ({Me3N+CH2CH2(OCH2CH2)4CO}-[Pen]D(NMe2)T[Trp(7-Me)][X6](Me3N+CH2CH2(OCH2CH2)4CO)[Pen][ξAEF][2Nal][Thp]EN[3Pal][NMeK]([PEG6-X28])-NH2; disulfide 1-6), the IC50 in assay [1] is less than 0.5 nM; on IL-23R it was 50 to 500 nM.
